Assay results published in ChEMBL document CHEMBL1201862, “PubChem BioAssay data set” (2004).
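Briefly, cells in 96-well plates were exposed to five compound concentrations for 48 h, and endpoints were estimated by linear interpolation. At the GI50, growth is halved.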 Calls of active or inactive are those of the source. No stated cut-off is given here; in the data, active = GI50 up to about 1.1 µM and inactive = higher.

Tests used:
Assay in all cases: NCI anticancer screen, dose series, 48 h
A549 = test system: A549
CCRF-CEM = test system: CCRF-CEM
HOP-62 = test system: HOP-62
MDA-N = test system: MDA-N
MOLT-4 = test system: MOLT-4
NCI-H23 = test system: NCI-H23
NCI-H460 = test system: NCI-H460
OVCAR-3 = test system: OVCAR-3
OVCAR-8 = test system: OVCAR-8
SF-295 = test system: SF-295
SF-539 = test system: SF-539
SK-MEL-5 = test system: SK-MEL-5
SK-OV-3 = test system: SK-OV-3
SR = test system: SR
U-251 = test system: U-251
UACC-62 = test system: UACC-62
HCC 2998 = test system: HCC 2998
Malme-3M = test system: Malme-3M
NCI-H522 = test system: NCI-H522
Hs-578T = test system: Hs-578T

Measured: GI50

C#CCOCCCC(=O)O
inactive: A549 > 100 µM | CCRF-CEM > 100 µM | HOP-62 > 100 µM | MDA-N > 100 µM | MOLT-4 > 100 µM | NCI-H23 > 100 µM | NCI-H460 > 100 µM | OVCAR-3 > 100 µM | OVCAR-8 > 100 µM | SF-295 > 100 µM | SF-539 > 100 µM | SK-MEL-5 > 100 µM | SK-OV-3 > 100 µM | SR > 100 µM | U-251 > 100 µM | UACC-62 > 100 µM

COc1ccc(OC)c2c(C)ccnc12
inactive: A549 21.4 µM | CCRF-CEM 5.25 µM | HCC 2998 > 95.5 µM | HOP-62 9.75 µM | MDA-N 26.3 µM | Malme-3M 12.2 µM | NCI-H23 27.2 µM | NCI-H460 21.7 µM | NCI-H522 4.1 µM | OVCAR-3 2.99 µM | OVCAR-8 14.9 µM | SF-295 16.5 µM | SK-MEL-5 22.2 µM | SK-OV-3 > 86.1 µM | U-251 16.4 µM | UACC-62 25.3 µM

CCCCc1c2c(nc3c1CCCC3O)/C(=C/c1ccccc1)CCC2 (stereo unspecified)
inactive: A549 49.5 µM | CCRF-CEM 15.9 µM | HCC 2998 9.84 µM | HOP-62 36.5 µM | MOLT-4 11.6 µM | Malme-3M 20.2 µM | NCI-H23 27.3 µM | NCI-H460 17.1 µM | NCI-H522 21.7 µM | OVCAR-3 18.7 µM | OVCAR-8 32 µM | SF-295 42.3 µM | SF-539 28.1 µM | SK-MEL-5 21.7 µM | SK-OV-3 38.5 µM | SR 14 µM | U-251 28 µM | UACC-62 33.8 µM

COC(=O)C(=O)C(C(=O)C(=O)Nc1ccc(Cl)cc1C)c1nc2ccc(C(=O)c3ccccc3)cc2nc1O (stereo unspecified)
inactive: A549 > 100 µM | CCRF-CEM 50.6 µM | HCC 2998 98.9 µM | HOP-62 > 100 µM | MOLT-4 51.1 µM | Malme-3M > 100 µM | NCI-H23 > 100 µM | NCI-H460 > 100 µM | NCI-H522 37 µM | OVCAR-3 > 100 µM | OVCAR-8 > 100 µM | SF-295 > 100 µM | SF-539 58.5 µM | SK-OV-3 > 100 µM | SR 43.5 µM | U-251 > 100 µM | UACC-62 61.9 µM

CC(=O)c1ccc(NC(=O)C(=O)CC(=O)c2sc(-n3nc(-c4ccccc4)cc3-c3ccccc3)nc2C)cc1
inactive: A549 > 100 µM | CCRF-CEM > 100 µM | HCC 2998 > 100 µM | HOP-62 > 100 µM | MOLT-4 > 100 µM | Malme-3M > 100 µM | NCI-H23 > 100 µM | NCI-H460 > 100 µM | NCI-H522 > 100 µM | OVCAR-3 > 100 µM | OVCAR-8 > 100 µM | SF-295 > 100 µM | SF-539 > 100 µM | SK-OV-3 > 100 µM | SR > 100 µM | U-251 > 100 µM | UACC-62 > 100 µM

O=c1oc(C(C(F)(F)F)C(F)(F)F)nc2ccccc12
inactive: A549 > 100 µM | CCRF-CEM > 100 µM | HCC 2998 > 100 µM | HOP-62 > 100 µM | MOLT-4 > 100 µM | Malme-3M > 100 µM | NCI-H23 > 100 µM | NCI-H460 > 100 µM | NCI-H522 > 100 µM | OVCAR-3 > 100 µM | OVCAR-8 > 100 µM | SF-295 > 100 µM | SF-539 > 100 µM | SK-MEL-5 > 100 µM | SK-OV-3 > 100 µM | SR > 100 µM | U-251 > 100 µM

COC(=O)[C@]1(C)C(OC)=CC(=O)C2C1[C@H]1CCC[C@@H]21 (stereo partly specified)
inactive: A549 > 100 µM | CCRF-CEM > 100 µM | HCC 2998 > 100 µM | HOP-62 > 100 µM | MOLT-4 > 100 µM | Malme-3M > 100 µM | NCI-H23 > 100 µM | NCI-H460 > 100 µM | NCI-H522 > 100 µM | OVCAR-3 > 100 µM | OVCAR-8 > 100 µM | SF-295 > 100 µM | SF-539 > 100 µM | SK-MEL-5 > 100 µM | SK-OV-3 > 100 µM | SR > 100 µM | U-251 > 100 µM | UACC-62 > 100 µM

COC1=CC2(CC(OC)=C1OC)OC21COc2ccccc2C1=O (stereo unspecified)
inactive: A549 56.4 µM | CCRF-CEM 32.3 µM | HCC 2998 > 100 µM | HOP-62 > 100 µM | Hs-578T > 100 µM | MOLT-4 23 µM | Malme-3M > 100 µM | NCI-H23 58.5 µM | NCI-H460 42.9 µM | NCI-H522 75 µM | OVCAR-3 > 100 µM | OVCAR-8 > 100 µM | SF-295 61.2 µM | SF-539 > 100 µM | SK-MEL-5 43 µM | SK-OV-3 > 100 µM | SR 24.9 µM | U-251 73.8 µM | UACC-62 60.1 µM

O=C(N/C(=C\c1ccccc1Cl)c1nc2ccccc2[nH]1)c1ccccc1
inactive: A549 26.7 µM | CCRF-CEM 30.4 µM | HCC 2998 29.4 µM | MOLT-4 20.6 µM | Malme-3M 23.5 µM | NCI-H23 25.1 µM | NCI-H522 22.8 µM | OVCAR-3 29.7 µM | OVCAR-8 27.5 µM | SF-295 17 µM | SF-539 32.7 µM | SK-MEL-5 17.4 µM | SK-OV-3 31.6 µM | SR 23.3 µM | U-251 27 µM | UACC-62 21.4 µM

Cc1ccc(-c2cc(=O)c3cc(C)c(C)c(C(=O)O)c3o2)cc1C
inactive: A549 > 100 µM | CCRF-CEM > 100 µM | HCC 2998 > 100 µM | HOP-62 > 100 µM | MOLT-4 > 100 µM | Malme-3M > 100 µM | NCI-H23 > 100 µM | NCI-H460 > 100 µM | NCI-H522 > 100 µM | OVCAR-3 > 100 µM | OVCAR-8 > 100 µM | SF-295 > 100 µM | SF-539 > 100 µM | SK-MEL-5 > 100 µM | SK-OV-3 > 100 µM | SR > 100 µM | U-251 > 100 µM | UACC-62 > 100 µM

CC(=O)c1c(CO[N+](=O)[O-])[n+]([O-])c2ccccc2[n+]1[O-]
inactive: A549 > 100 µM | CCRF-CEM 37.9 µM | HOP-62 98.2 µM | Hs-578T 41.1 µM | MOLT-4 78.3 µM | Malme-3M 53.7 µM | NCI-H23 45.5 µM | NCI-H460 > 100 µM | NCI-H522 31.8 µM | OVCAR-3 52.8 µM | OVCAR-8 > 100 µM | SF-295 > 100 µM | SF-539 > 100 µM | SK-MEL-5 68.1 µM | SK-OV-3 > 100 µM | SR 43.9 µM | U-251 33.8 µM | UACC-62 35.7 µM

COC(=O)CCC(=O)Nc1cc(Cl)ccc1Cl
inactive: A549 > 100 µM | CCRF-CEM > 100 µM | HCC 2998 > 100 µM | HOP-62 > 100 µM | MOLT-4 > 100 µM | Malme-3M > 100 µM | NCI-H23 > 100 µM | NCI-H460 > 100 µM | NCI-H522 > 100 µM | OVCAR-3 > 100 µM | OVCAR-8 > 100 µM | SF-295 > 100 µM | SF-539 > 100 µM | SK-MEL-5 > 100 µM | SK-OV-3 > 100 µM | SR > 100 µM | U-251 > 100 µM | UACC-62 > 100 µM

C/C(=C\COP(=O)(O)CP(=O)(O)O)CC/C=C(\C)CNc1ccccc1
inactive: A549 > 100 µM | CCRF-CEM > 100 µM | HOP-62 > 100 µM | Hs-578T > 100 µM | MOLT-4 > 100 µM | NCI-H23 6.28 µM | NCI-H460 > 100 µM | NCI-H522 > 100 µM | OVCAR-3 > 100 µM | OVCAR-8 > 100 µM | SF-295 > 100 µM | SF-539 > 100 µM | SK-MEL-5 > 100 µM | SK-OV-3 > 100 µM | U-251 > 100 µM | UACC-62 > 100 µM

COc1ccc(C2CC(=O)CC(c3ccc(OC)cc3)C23C(=O)NC(=S)NC3=O)cc1 (stereo unspecified)
inactive: CCRF-CEM > 100 µM | HCC 2998 > 100 µM | HOP-62 > 100 µM | MDA-N > 100 µM | MOLT-4 > 100 µM | NCI-H23 > 100 µM | NCI-H460 > 100 µM | NCI-H522 > 100 µM | OVCAR-3 > 100 µM | OVCAR-8 > 100 µM | SF-295 > 100 µM | SF-539 > 100 µM | SK-MEL-5 > 100 µM | SR > 100 µM | U-251 > 100 µM | UACC-62 > 100 µM

CC(C)(C)NNC(=O)/C(=C/c1ccc(Oc2ccc(Cl)c(Cl)c2)cc1)NC(=O)c1ccccc1
inactive: A549 > 100 µM | CCRF-CEM 69.5 µM | HCC 2998 > 100 µM | HOP-62 > 100 µM | MOLT-4 65 µM | Malme-3M > 100 µM | NCI-H23 > 100 µM | NCI-H460 40.6 µM | NCI-H522 > 100 µM | OVCAR-3 > 100 µM | OVCAR-8 > 100 µM | SF-295 > 100 µM | SF-539 > 100 µM | SK-MEL-5 > 100 µM | SK-OV-3 > 100 µM | SR 16.9 µM | U-251 > 100 µM | UACC-62 > 100 µM

O=C(NO)c1ccc(O)c(O)c1
inactive: A549 > 100 µM | CCRF-CEM 42.1 µM | HCC 2998 > 100 µM | HOP-62 > 100 µM | MOLT-4 93.3 µM | Malme-3M > 100 µM | NCI-H23 > 100 µM | NCI-H460 70.3 µM | NCI-H522 79.4 µM | OVCAR-3 > 100 µM | OVCAR-8 79.1 µM | SF-295 29.5 µM | SF-539 > 100 µM | SK-MEL-5 > 100 µM | SK-OV-3 > 100 µM | SR 36.4 µM | U-251 > 100 µM | UACC-62 > 100 µM
